# Laboratory results from US9745314B2, “MDM2 inhibitors and therapeutic methods using the same” (THE REGENTS OF THE UNIVERSITY OF MICHIGAN, priority 2014, dated 2017).
# Like-named read-outs stand apart in the source and are kept apart here.
# How the values were obtained:
# [1] = molecular target: T1, recombinant human His-tagged MDM2 protein (residues 1-118) (Homo sapiens, UniProt Q00987); assay: biochemical
# [2] = molecular target: T1, recombinant human His-tagged MDM2 protein (residues 1-118); assay: Fluorescence-polarization MDM2 competitive binding assay; details: for Ki: MDM2 (FP binding assay) Ki(nM), competitive FP
# SJSA-1 cells = assay: Cell growth assay (WST-8), SJSA-1; assay type: cell-based, human; details: for IC50: Homo sapiens, SJSA-1, 96 h, 4 days
# SJSA-1 xenograft tumors = assay: In vivo efficacy in SJSA-1 xenograft model; set-up: species or system C.B-17 SCID mice; details: for anti-tumor activity in mice bearing SJSA-1 xenograft tumors (in words): FIG. 2B
# Experimental: In Vivo Efficacy Studies Using SJSA-Xenograft Models
# SJSA-1 (osteosarcoma) tumor cells were harvested with Trypsin (0.05%)-EDTA (0.53 mM) (GIBCO™, Invitrogen Corp.), growth medium was added, and the cells were placed on ice. A cell sample was mixed 1:1 with Trypan Blue (GIBCO™, Invitrogen Corp.) and counted on a hemocytometer to determine the number of live/dead cells. Cells were washed once with 1×PBS (GIBCO™, Invitrogen Corp.) and resuspended in PBS. For Matrigel injections, after washing in PBS, cells are resuspended in an ice cold mixture of 1:1 PBS and Matrigel (BD Biosciences, Invitrogen Corp.) for a final Matrigel protein concentration of 5 mg/ml. SJSA-1 tumors were inoculated into C.B-17 SCID mice at 5×10^6 cells in 0.1 ml with Matrigel. Cells were injected s.c. into the flank region of each mouse using a 27 gauge needle.
# The size of tumors growing in the mice was measured in two dimensions using calipers. Tumor volume (mm^3)=(A×B^2)/2 where A and B are the tumor length and width (in mm), respectively. During treatment, tumor volume and body weight was measured three times a week. After the treatment was stopped, tumor volume and body weight was measured at least once a week. Mice were kept for an additional 60 days for further observation of tumor growth and toxicity. The anti-tumor activity of compound No. 8 (administered via oral gavage) at different doses and according to different dosing schedules, including weekly for 3 weeks (qw*3 wks), every other day for 3 weeks, daily for 3 days out of a week for 3 weeks (qd1-3/w*3 wks), and daily for 2 weeks (qd*14 d), is shown in FIG. 3.
# [3] = Microsomal stability, mouse; assay type: in vitro ADME; details: mouse microsomes; read-out: Microsomal stability T1/2 (min) Mouse
# [4] = system: HCT116 p53 deleted (HCT116 p53−/−); assay: Cell growth assay (WST-8), HCT116 p53 deleted; assay type: cell-based; details: Homo sapiens, HCT-116, 96 h, 4 days
# PC3 = assay: Cell growth assay (WST), PC3; assay type: cell-based; details: Homo sapiens, PC-3, 96 h, Prostate cancer, p53 null, 4 days, read-out: Cell Growth Inhibition (IC50) PC3
# Saos2 = assay: Cell growth assay (WST), Saos2; assay type: cell-based; details: Homo sapiens, SAOS-2, 96 h, Osteosarcoma, p53 null, 4 days, read-out: Cell Growth Inhibition (IC50) Saos2
# [5] = Oral pharmacokinetics in Sprague-Dawley rats; details: rat, in vivo, 25 mg/kg oral
# [6] = Microsomal stability, rat; assay type: in vitro ADME; details: rat microsomes; read-out: Microsomal stability T1/2 (min) Rat
# RS4; 11 = assay: Cell growth assay (WST), RS4;11; assay type: cell-based; details: Homo sapiens, RS4-11, 96 h, Leukemia, p53 wild-type, 4 days, read-out: Cell Growth Inhibition (IC50) RS4
# [7] = Microsomal stability, dog; assay type: in vitro ADME; details: dog microsomes; read-out: Microsomal stability T1/2 (min) Dog
# [8] = Microsomal stability, human; assay type: in vitro ADME; details: human microsomes; read-out: Microsomal stability T1/2 (min) Human
# LNCaP = assay: Cell growth assay (WST), LNCaP; assay type: cell-based; details: Homo sapiens, 96 h, Prostate cancer, p53 wild-type, 4 days, read-out: Cell Growth Inhibition (IC50) LNCaP
# HCT116 p53 WT = assay: Cell growth assay (WST-8), HCT116 p53 WT; assay type: cell-based; details: Homo sapiens, HCT-116, 96 h, 4 days
# ZR-75-1 = assay: Cell growth assay (WST), ZR-75-1; assay type: cell-based; details: Homo sapiens, ZR-75-1, 96 h, Breast cancer, p53 wild-type, 4 days, read-out: Cell Growth Inhibition (IC50) ZR-75-1
# Experimental: Cells were seeded in 96-well flat bottom cell culture plates at a density of 2-3×10^3 cells/well with compounds and incubated for 4 days. […] 92037, USA).
# [9] = Stability of compounds in solution (UPLC); assay type: physicochemical; details: FIG. 1; 1:1 CH3CN/H2O, 1:1 MeOH/H2O, cell culture media
# Experimental: Stability of Compounds in Solution
# The stability of the compounds were determined in 1:1 MeOH:H2O, 1:1 CH3CN:H2O, and cell culture medium using ultra performance liquid chromatography.
# [10] = WST-8, read-out: Cell Growth Inhibition IC50 (μM) SJSA-1
# [11] = WST-8, read-out: Cell Growth Inhibition IC50 (μM) HCT116 p53 deleted
# [12] = Colon cancer, p53 knock-out, WST assay, read-out: Cell Growth Inhibition (IC50) HCT116 p53−/−
# [13] = Osteosarcoma, p53 wild-type, WST assay, read-out: Cell Growth Inhibition (IC50) SJSA-1
# [14] = WST-8, read-out: Cell Growth Inhibition IC50 (μM) HCT116 p53 WT
# [15] = Colon cancer, p53 wild-type, WST assay, read-out: Cell Growth Inhibition (IC50) HCT116
Structure (SMILES),IC50 [1],Ki [2],IC50 (SJSA-1 cells; [10]),anti-tumor activity in mice bearing SJSA-1 xenograft tumors (in words) (SJSA-1 xenograft tumors),half-life [3],"IC50 [4, 11]",AUC(0-inf) [5],AUC(0-t) [5],Tmax [5],half-life [5],half-life [6],half-life [7],half-life [8],binding affinity to MDM2 (in words) [2],cell growth inhibition in SJSA-1 cells (in words) (SJSA-1 cells),IC50 (HCT116 p53 WT; [14]),IC50 (ZR-75-1),further results
CC1(O)CCC2(CC1)N[C@@H](C(=O)NC13CCC(C(=O)O)(CC1)CC3)[C@H](c1cccc(Cl)c1F)[C@]21C(=O)Nc2cc(Cl)ccc21 (some centres unmarked) [Cpd No. 5],0.131 µM,30 nM,,,,,,,,,,,,,,,,
CS(=O)(=O)NC(=O)C12CCC(NC(=O)[C@@H]3NC4(CCCCC4)[C@@]4(C(=O)Nc5cc(Cl)ccc54)[C@H]3c3cccc(Cl)c3F)(CC1)CC2 [Cpd No. 4],0.0079 µM,,0.373 µM,,,,,,,,,,,,,,,
CC1(O)CCC2(CC1)N[C@@H](C(=O)NC13CCC(C(=O)O)(CC1)CC3)[C@H](c1cccc(Cl)c1F)[C@]21C(=O)Nc2cc(Cl)ccc21 (some centres unmarked) [Cpd No. 6],0.0073 µM,< 1 nM,,,,,,,,,,,,,,,,
O=C(NC12CCC(C(=O)O)(CC1)CC2)[C@@H]1NC2(CCCCC2)[C@@]2(C(=O)Nc3cc(Cl)ccc32)[C@H]1c1cccc(Cl)c1F [Cpd No. 2],0.0052 µM,,0.089 ± 0.033 µM,only modest anti-tumor activity,> 60 min,14 ± 2 µM,74.3 ± 5.26 µg·h/mL,73.6 ± 5.02 µg·h/mL,3.33 ± 1.15 h,4.29 ± 0.371 h,> 60 min,> 60 min,> 60 min,high binding affinity,potent cell growth inhibition activity,0.137 ± 0.031 µM,0.677 ± 0.252 µM,"IC50 [4, 12]: 14 ± 2 µM; IC50 (PC3): 12.3 ± 2.5 µM; IC50 (Saos2): 26.7 ± 5.1 µM; Cmax [5]: 8.23 ± 0.278 µg/mL; IC50 (RS4; 11): 0.062 ± 0.026 µM; IC50 (LNCaP): 0.036 ± 0.019 µM; IC50 (SJSA-1 cells; [13]): 0.089 ± 0.033 µM; IC50 (HCT116 p53 WT; [15]): 0.137 ± 0.031 µM"
CN1[C@@H](C(=O)NC23CCC(C(=O)O)(CC2)CC3)[C@H](c2cccc(Cl)c2F)[C@]2(C(=O)Nc3cc(Cl)ccc32)C12CCCCC2 [Cpd No. 7],,,,complete and persistent tumor regression,> 60 min,,35.4 ± 15.5 µg·h/mL,35.2 ± 15.2 µg·h/mL,4 h,3.89 ± 1.02 h,> 60 min,> 60 min,> 60 min,high binding affinity,,,0.713 ± 0.165 µM,stability in solutions (in words) [9]: stable in solutions
O=C(NC12CCC(C(=O)O)(CC1)CC2)[C@@H]1NC2(CCC(F)(F)CC2)[C@@]2(C(=O)Nc3cc(Cl)ccc32)[C@H]1c1cccc(Cl)c1F [Cpd No. 3],0.0088 µM,< 1 nM,0.165 µM,,,,,,,,,,,,,,,
CN1[C@@H](C(=O)NC23CCC(C(N)=O)(CC2)CC3)[C@H](c2cccc(Cl)c2F)[C@]2(C(=O)Nc3cc(Cl)ccc32)C12CCCCC2 [Cpd No. 9],0.0052 µM,< 1 nM,0.173 ± 0.031 µM,,,9 ± 1 µM,,,,,,,,,,0.266 ± 0.127 µM,,
"O=C(O)c1ccc(NC(=O)[C@@H]2NC3(CCCCC3)[C@@]3(C(=O)Nc4cc(Cl)ccc43)[C@H]2c2cccc(Cl)c2F)cc1 [AA-MI-061, reference compound]",,,,,,,,,,,,,,high binding affinity,potent cell growth inhibition,,,"tumor regression (SJSA-1 xenograft tumors; 100 mg/kg, once, daily dosing, SCID mice bearing SJSA-1 xenografts (FIG. 2A)): 90%"
CCN1[C@@H](C(=O)NC23CCC(C(=O)O)(CC2)CC3)[C@H](c2cccc(Cl)c2F)[C@]2(C(=O)Nc3cc(Cl)ccc32)C12CCCCC2 [Cpd No. 8],,,0.06 ± 0.022 µM,complete and persistent tumor regression,> 60 min,8 ± 1 µM,39.5 ± 8.52 µg·h/mL,39.1 ± 8.47 µg·h/mL,4 h,4.61 ± 1.35 h,> 60 min,> 60 min,> 60 min,high binding affinity,,0.104 ± 0.036 µM,0.462 ± 0.036 µM,"IC50 [4, 12]: 8 ± 1 µM; IC50 (PC3): 22 ± 7.2 µM; stability in solutions (in words) [9]: stable in solutions; IC50 (Saos2): 22.7 ± 4.7 µM; IC50 (LNCaP): 0.018 ± 0.013 µM; IC50 (SJSA-1 cells; [13]): 0.06 ± 0.022 µM; IC50 (HCT116 p53 WT; [15]): 0.104 ± 0.036 µM"
O=C(NC12CC(C(=O)O)(C1)C2)[C@@H]1NC2(CCCCC2)[C@@]2(C(=O)Nc3cc(Cl)ccc32)[C@H]1c1cccc(Cl)c1F [Cpd No. 1],0.0054 µM,,0.48 µM,,,12.6 µM,,,,,,,,high binding affinity,reduced potency,3.7 µM,,
